Test results published in patent publication US20210115104A1, “AMYLIN ANALOGUES” (Zealand Pharma A/S, priority 2015, published 2021).
*1 amine or outer side, *2 acyl side, *3 side chain or, on linkers, in order; H or OH if unused. Where a SMILES comes first, the peptide text is derived from it. Bridges are numbered along the chain shown (N, C = ends). [ ]: non-standard residue; d: D form. The star is where a group is joined. C20 diacid = O=C(O)CCCCCCCCCCCCCCCCCCC(=O)*; Pro(4R-NH2) = N[C@H]1CN[C@H](C(=O)O)C1; γGlu = O=C(O)[C@H](CCC(=O)[*:2])N[*:1]; Hyp = O=C(O)[C@@H]1C[C@@H](O)CN1; NMeI = CC[C@H](C)[C@H](NC)C(=O)O; Sar = CNCC(=O)O

Key:
[1] = molecular target: T1, human calcitonin receptor (hCTR2) (Homo sapiens, UniProt P30988); assay: hCTR2 cAMP assay (AlphaScreen) in COS7 cells; assay type: cell-based; settings: cAMP induction, COS7 cells expressing hCTR2; Table 1; read-out: hCTR2 EC50
T1 construct: expressed in transfected cells
T1 sequence (P30988 25-474): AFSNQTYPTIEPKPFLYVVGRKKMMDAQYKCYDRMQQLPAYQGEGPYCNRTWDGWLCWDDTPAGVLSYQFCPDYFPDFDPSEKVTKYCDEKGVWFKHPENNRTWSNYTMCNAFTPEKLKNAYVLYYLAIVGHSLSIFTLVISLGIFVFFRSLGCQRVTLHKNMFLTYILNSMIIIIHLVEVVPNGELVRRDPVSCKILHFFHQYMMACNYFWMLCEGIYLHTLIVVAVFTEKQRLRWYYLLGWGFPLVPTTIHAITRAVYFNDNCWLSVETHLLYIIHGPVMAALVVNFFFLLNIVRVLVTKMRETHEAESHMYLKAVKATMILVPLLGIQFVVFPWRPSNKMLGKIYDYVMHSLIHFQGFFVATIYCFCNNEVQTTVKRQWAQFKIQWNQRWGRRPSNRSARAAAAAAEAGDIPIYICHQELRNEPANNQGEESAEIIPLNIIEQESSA
Text: The cell line COS7, originating from African Green Monkey kidney fibroblast cells, was used for establishment of the stable cell lines described below. The COS7 cellular background was used due to it being RAMP naïve, and as such it provides the best available system for testing of the monomeric hCTR and different heterodimeric amylin receptor subtypes functionally generated by introduction of the individual RAMPs.
A cell line expressing the human calcitonin receptor (hCTR2) was generated in the COS7 cellular background as stable clones. In brief, hCTR2 (GI: 4502547) was amplified by PCR using primers encoding terminal restriction sites for subcloning. The 5′-end primers additionally encoded a near Kozak consensus sequence to ensure efficient translation. The fidelity of the DNA encoding the receptor was confirmed by DNA sequencing. The PCR products encoding the receptor were subcloned into a mammalian expression vector containing a neomycin (G418) resistance marker. The mammalian expression vector encoding the receptor was transfected into COS7 cells by a standard liposome transfection method. 48 hours post-transfection, cells were seeded for limited dilution cloning and selected with 1 mg/ml G418 in the culture medium. After 3 weeks, surviving colonies of hCTR2-expressing cells were picked, propagated and tested in the amylin efficacy assay as described in Example 3 below. One hCTR2-expressing clone was chosen for compound profiling.
In vitro activity of test peptides at the hCTR2 and hAMYR3 receptors was assessed by measuring the induction of cAMP following stimulation of the receptor using the AlphaScreen® cAMP Assay kit from Perkin-Elmer.
Briefly, COS7 cells expressing hCTR2 (see Example 2, above) were seeded at 30-40,000 cells per well in 96-well microtiter plates coated with 0.01% poly-L-lysine, and grown for 1 day in culture in 100 μl growth medium [DMEM, 10% FCS, Penicillin (100 IU/ml), Streptomycin (100 μg/ml)]. On the day of analysis, growth medium was removed and the cells were washed once with 200 μl Tyrode buffer [Tyrode's Salts (9.6 g/I), 10 mM HEPES, pH 7.4]. Cells were incubated in 100 μl Tyrode buffer containing increasing concentrations of test peptides, 100 µM IBMX and 0.1% casein for 15 min at 37° C. The reaction was stopped by carefully decanting off the compound/buffer medium and replacing it with lysis/detection buffer (80 μl 0.1% w/v BSA, 5 mM HEPES, 0.3% v/v Tween-20 in deionized water). After incubation at room temperature for 10 min., the cAMP content of the resulting cell lysate was estimated according to the AlphaScreen® cAMP Assay manufacturer's instructions. EC50 values were estimated by computer-aided curve fitting using the 4-parameter logistic (4PL) non-linear model.

[2] = Assessment of physical stability (Thioflavin T fibrillation); assay type: physicochemical; design: key: FND = fibrillation not detected; FD = fibrillation detected; settings: 1 mg/ml, 40° C., ThT
Experimental: Solutions containing (i) 1 mg/ml of test peptide, 40 μM ThT and 50 mM phosphate (Ph) buffer (pH 7.0), (ii) 1 mg/ml of test peptide, 40 μM ThT and 50 mM histidine (His) buffer (pH 7.0), and (iii) 1 mg/ml of test peptide, 40 μM ThT and 50 mM acetate (Ac) buffer (pH 4.0), were loaded in a 96-well black fluorescence plate (clear bottom) in triplicate. Data were collected at fixed intervals of 10 min, each preceded by 300 s of automixing (agitation), over a period of 96 hours at 40° C. Physical stability, expressed as lag-time of fibril formation (in hours), was defined as the intersection between two linear regressions representing the initial stable phase and the growth phase.

[3] = Assessment of chemical stability (RP-HPLC normalized purity); assay type: physicochemical
Experimental: Samples of each test peptide were dissolved in MilliQ™ water, and the pH of the solution was adjusted to pH 4, pH 6, pH 7.5 or pH 9, respectively, using either HCl or NaOH. The final peptide concentration was 0.2 mg/ml. Samples were placed in glass vials and incubated at 40° C. The samples were analyzed by RP-HPLC on a C8 column with gradient elution using an ammonium formate/water eluent system, or on a C18 column with gradient elution using a trifluoroacetic acid/water eluent system. The area-percentage (area-%) of the main peak after incubation time T=t (relative to time T=0) was determined by UV spectroscopy at 220 nm.
The purity was first determined as follows:
Purity(area-%)=(area of main peak/total area of all peaks)×100.
The purity was then normalized between time points by setting purity at time 0 (T=0) to 100 for each pH value for a given peptide, as follows:
Normalised area-% at time t (T=t)=[area-%(T=t)/area-%(T=0)]×100.
The normalized purity values in Table 1 were determined after 7 days of incubation.
The chemical stability assessment described in Example 6 was repeated for four pairs of compounds, each differing only by the presence or absence of an Asn-Asn (N—N) doublet at positions 21 and 22.

Compound | EC50 [1] | Fibrillation pH 4.0 (Ac) ([2]; 50 mM acetate buffer pH 4.0, 96 hours) | Fibrillation pH 7.0 (His) ([2]; 50 mM histidine buffer pH 7.0, 96 hours) | Fibrillation pH 7.0 (Phos.) ([2]; 50 mM phosphate buffer pH 7.0, 96 hours) | Normalized purity after 7 days, 40° C., pH 4 ([3]; pH 4, 0.2 mg/ml, 7 days, 40° C., Table 1) | Normalized purity pH 4 (Table 5) ([3]; pH 4, repeat of Example 6 for pairs with/without Asn-Asn at 21-22) | Normalized purity after 7 days, 40° C., pH 6 ([3]; pH 6, 0.2 mg/ml, 7 days, 40° C., Table 1) | Normalized purity pH 6 (Table 5) ([3]; pH 6, repeat of Example 6 for pairs with/without Asn-Asn at 21-22) | Normalized purity after 7 days, 40° C., pH 7.5 ([3]; pH 7.5, 0.2 mg/ml, 7 days, 40° C., Table 1) | Normalized purity pH 7.5 (Table 5) ([3]; pH 7.5, repeat of Example 6 for pairs with/without Asn-Asn at 21-22) | Normalized purity after 7 days, 40° C., pH 9 ([3]; pH 9, 0.2 mg/ml, 7 days, 40° C., Table 1) | Normalized purity pH 9 (Table 5) ([3]; pH 9, repeat of Example 6 for pairs with/without Asn-Asn at 21-22)
CC[C@H](C)[C@@H](C(=O)N[C@@H](CC(C)C)C(=O)N[C@@H](CO)C(=O)N[C@@H](CO)C(=O)N[C@H](C(=O)N[C@@H](CCC(=O)O)C(=O)N[C@H](C(=O)NCC(=O)N[C@@H](CO)C(=O)N[C@@H](CC(N)=O)C(=O)N[C@H](C(=O)N1C[C@H](O)C[C@H]1C(N)=O)[C@@H](C)O)C(C)C)[C@@H](C)O)N(C)C(=O)[C@H](C)NC(=O)CN(C)C(=O)[C@H](Cc1ccccc1)NC(=O)[C@H](CO)NC(=O)[C@H](CO)NC(=O)[C@H](CCCNC(=N)N)NC(=O)[C@@H](NC(=O)[C@H](CC(C)C)NC(=O)[C@H](Cc1ccccc1)NC(=O)[C@H](CC(N)=O)NC(=O)[C@H](C)NC(=O)[C@H](CC(C)C)NC(=O)[C@H](CCCNC(=N)N)NC(=O)[C@H](CCC(=O)O)NC(=O)[C@@H](NC(=O)[C@H](C)NC(=O)[C@@H]1CSSC[C@H](NC(=O)[C@H](CCCNC(=N)N)NC(=O)CC[C@H](NC(=O)CCCCCCCCCCCCCCCCCCC(=O)O)C(=O)O)C(=O)NCC(=O)N[C@@H]([C@@H](C)O)C(=O)N[C@@H](C)C(=O)N[C@@H]([C@@H](C)O)C(=O)N1)[C@@H](C)O)C(C)C [Compound 17, [19CD]-isoGlu-R-C( )-GTAT-C( )-ATERLANFLVRSSF-Gly(Me)-A-Ile(Me)-LSSTEVGSNT-Hyp-NH2] ({C20 diacid-γGlu}-RCGTATCATERLANFLVRSSF[Sar]A[NMeI]LSSTEVGSNT[Hyp]-NH2; disulfide 2-7) | 0.13 nM | – | – | – | – | – | – | – | – | – | – | –
CC[C@H](C)[C@@H](C(=O)N[C@@H](CC(C)C)C(=O)N[C@@H](CO)C(=O)N[C@@H](CO)C(=O)N[C@H](C(=O)N[C@@H](CCC(=O)O)C(=O)N[C@H](C(=O)NCC(=O)N[C@@H](CO)C(=O)N[C@@H](CO)C(=O)N[C@H](C(=O)N1C[C@H](N)C[C@H]1C(N)=O)[C@@H](C)O)C(C)C)[C@@H](C)O)N(C)C(=O)[C@H](C)NC(=O)CN(C)C(=O)[C@H](Cc1ccccc1)NC(=O)[C@H](CO)NC(=O)[C@H](CO)NC(=O)[C@H](CCCNC(=N)N)NC(=O)[C@@H](NC(=O)[C@H](CC(C)C)NC(=O)[C@H](Cc1ccccc1)NC(=O)[C@H](Cc1c[nH]cn1)NC(=O)[C@H](C)NC(=O)[C@H](CC(C)C)NC(=O)[C@H](CCCNC(=N)N)NC(=O)[C@H](CCC(=O)O)NC(=O)[C@@H](NC(=O)[C@H](C)NC(=O)[C@@H]1CSSC[C@H](NC(=O)[C@H](CCCNC(=N)N)NC(=O)CC[C@H](NC(=O)CCCCCCCCCCCCCCCCCCC(=O)O)C(=O)O)C(=O)NCC(=O)N[C@@H]([C@@H](C)O)C(=O)N[C@@H](C)C(=O)N[C@@H]([C@@H](C)O)C(=O)N1)[C@@H](C)O)[C@@H](C)O [Compound 45, [19CD]-isoGlu-R-C( )-GTAT-C( )-ATERLAHFLTRSSF-Gly(Me)-A-Ile(Me)-LSSTEVGSST-Apr-NH2] ({C20 diacid-γGlu}-RCGTATCATERLAHFLTRSSF[Sar]A[NMeI]LSSTEVGSST[Pro(4R-NH2)]-NH2; disulfide 2-7) | 0.16 nM | – | – | – | – | – | – | – | – | – | – | –
CC[C@H](C)[C@H](NC(=O)[C@@H]1CCCN1C(=O)CNC(=O)[C@H](Cc1ccccc1)NC(=O)[C@H](CC(N)=O)NC(=O)[C@H](CC(N)=O)NC(=O)[C@H](CO)NC(=O)[C@H](CO)NC(=O)[C@H](Cc1c[nH]cn1)NC(=O)[C@H](Cc1c[nH]cn1)NC(=O)[C@H](CC(C)C)NC(=O)[C@H](Cc1ccccc1)NC(=O)[C@H](CCC(=O)O)NC(=O)[C@H](C)NC(=O)[C@H](CC(C)C)NC(=O)[C@H](CCCNC(=N)N)NC(=O)[C@H](CCC(N)=O)NC(=O)[C@@H](NC(=O)[C@H](C)NC(=O)[C@@H]1CSSC[C@H](NC(=O)[C@H](CCCNC(=N)N)NC(=O)CC[C@H](NC(=O)CCCCCCCCCCCCCCCCCCC(=O)O)C(=O)O)C(=O)N[C@@H](CC(N)=O)C(=O)N[C@@H]([C@@H](C)O)C(=O)N[C@@H](C)C(=O)N[C@@H]([C@@H](C)O)C(=O)N1)[C@@H](C)O)C(=O)N[C@@H](CC(C)C)C(=O)N1CCC[C@H]1C(=O)N1CCC[C@H]1C(=O)N[C@H](C(=O)N[C@@H](CC(N)=O)C(=O)N[C@H](C(=O)NCC(=O)N[C@@H](CO)C(=O)N[C@@H](CC(N)=O)C(=O)N[C@H](C(=O)N1CCC[C@H]1C(N)=O)[C@@H](C)O)C(C)C)[C@@H](C)O [NN96, N-α-[(S)-4-carboxy-4-(19-carboxynonadecanoylamino)butyryl]-[Arg1, Glu14, His17, Pro37]-pramlintide-NH2, reference compound] ({C20 diacid-γGlu}-RCNTATCATQRLAEFLHHSSNNFGPILPPTNVGSNTP-NH2; disulfide 2-7) | – | FND | FD | FD | A (A = >90%) | A (A = >90%) | A (A = >90%) | A (A = >90%) | B (B = 70-90%) | B (B = 70-90%) | B (B = 70-90%) | B (B = 70-90%)
